Legend:
[1] = molecular target: human SGLT1 (Homo sapiens (Human), UniProt P13866); assay: SGLT1 assay: analogous 14C-AMG uptake test with hSGLT1 expressed in CHO-K1 or HEK293 cells; format: cell-based; conditions: n = 1-4
Procedure: (§1) The SGLT-2 assay is carried out as follows: CHO-hSGLT2 cells are cultivated in Ham's F12 Medium (BioWhittaker) with 10% foetal calf serum and 250 μg/mL zeocin (Invitrogen), and HEK293-hSGLT2 cells are cultivated in DMEM medium with 10% foetal calf serum and 250 μg/mL zeocin (Invitrogen). The cells are detached from the culture flasks by washing twice with PBS and subsequently treating with trypsin/EDTA. After the addition of cell culture medium the cells are centrifuged, resuspended in culture medium and counted in a Casy cell counter. Then 40,000 cells per well are seeded into a white, 96-well plate coated with poly-D-lysine and incubated overnight at 37° C., 5% CO2. The cells are washed twice with 250 μl of assay buffer (Hanks Balanced Salt Solution, 137 mM NaCl, 5.4 mM KCl, 2.8 mM CaCl2, 1.2 mM MgSO4 and 10 mM HEPES (pH 7.4), 50 μg/mL of gentamycin). 250 μl of assay buffer and 5 μl of test compound are then added to each well and the plate is incubated for a further 15 minutes in the incubator. 5 μl of 10% DMSO are used as the negative control. The reaction is started by adding 5 μl of 14 C— AMG (0.05 μCi) to each well. After 2 hours' incubation at 37° C., 5% CO2, the cells are washed again with 250 μl of PBS […] and then lysed by the addition of 25 μl of 0.1 N NaOH (5 min. at 37° C.). 200 μl of MicroScint20 (Packard) are added to each well and incubation is continued for a further 20 min at 37° C. After this incubation the radioactivity of the ^14C-AMG absorbed is measured in a Topcount (Packard) using a ^14C scintillation program.
To determine the selectivity with respect to human SGLT1 an analogous test is set up in which the cDNA for hSGLTI (Genbank Ace. No. NM000343) instead of hSGLT2 cDNA is expressed in CHO-K1 or HEK293 cells.
The title compounds of the Examples were evaluated in the above described assays and the results of which are collated in Table 1.

[2] = molecular target: human sodium glucose co-transporter 2 (SGLT2) (Homo sapiens (Human), UniProt P31639); assay: SGLT-2 assay: 14C-AMG uptake in CHO-hSGLT2 or HEK-hSGLT2 cells; format: cell-based; conditions: n = 1-4
Procedure: These cell lines transport ^14C-labelled alpha-methyl-glucopyranoside (^14C-AMG, Amersham) into the interior of the cell in sodium-dependent manner.
as §1

[3] = title compounds of the Examples (prodrugs)

human SGLT1, sequence (P13866 whole entry): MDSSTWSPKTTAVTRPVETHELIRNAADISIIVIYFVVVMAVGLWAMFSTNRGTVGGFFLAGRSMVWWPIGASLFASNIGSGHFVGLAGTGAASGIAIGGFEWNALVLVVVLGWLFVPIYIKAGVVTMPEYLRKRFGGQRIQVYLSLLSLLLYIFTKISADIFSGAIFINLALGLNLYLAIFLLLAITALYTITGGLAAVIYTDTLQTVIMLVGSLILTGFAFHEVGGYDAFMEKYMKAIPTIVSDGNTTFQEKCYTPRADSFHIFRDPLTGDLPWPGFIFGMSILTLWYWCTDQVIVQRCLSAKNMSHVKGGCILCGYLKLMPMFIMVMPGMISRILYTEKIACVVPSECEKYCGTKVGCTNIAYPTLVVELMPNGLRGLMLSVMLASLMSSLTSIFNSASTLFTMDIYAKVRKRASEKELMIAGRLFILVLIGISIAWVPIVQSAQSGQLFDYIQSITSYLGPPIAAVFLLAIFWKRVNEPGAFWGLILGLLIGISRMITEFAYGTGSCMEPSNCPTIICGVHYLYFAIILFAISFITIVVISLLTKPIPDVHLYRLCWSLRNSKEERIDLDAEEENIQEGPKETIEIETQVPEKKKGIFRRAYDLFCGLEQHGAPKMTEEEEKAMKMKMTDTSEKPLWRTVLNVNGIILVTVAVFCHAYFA
human sodium glucose co-transporter 2 (SGLT2), sequence (P31639 whole entry): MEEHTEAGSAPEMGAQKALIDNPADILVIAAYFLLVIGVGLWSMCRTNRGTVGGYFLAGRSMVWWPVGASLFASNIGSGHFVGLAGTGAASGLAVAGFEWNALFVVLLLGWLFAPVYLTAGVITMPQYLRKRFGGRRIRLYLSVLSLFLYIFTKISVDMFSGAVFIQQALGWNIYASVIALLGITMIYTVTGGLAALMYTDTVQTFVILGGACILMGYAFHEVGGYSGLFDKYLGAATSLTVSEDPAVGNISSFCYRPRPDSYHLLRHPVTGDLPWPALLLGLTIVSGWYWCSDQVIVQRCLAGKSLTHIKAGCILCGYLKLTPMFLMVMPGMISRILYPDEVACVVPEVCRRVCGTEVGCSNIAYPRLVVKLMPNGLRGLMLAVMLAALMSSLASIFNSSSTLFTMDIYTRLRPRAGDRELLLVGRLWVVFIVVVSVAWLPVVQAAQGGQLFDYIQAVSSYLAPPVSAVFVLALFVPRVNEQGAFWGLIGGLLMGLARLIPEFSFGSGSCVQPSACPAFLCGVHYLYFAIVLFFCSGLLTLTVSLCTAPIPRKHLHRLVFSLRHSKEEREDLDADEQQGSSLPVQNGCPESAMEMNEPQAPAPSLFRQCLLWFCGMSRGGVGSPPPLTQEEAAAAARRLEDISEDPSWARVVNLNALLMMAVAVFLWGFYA

Row | SMILES | IC50 [1] [nM] | IC50 ([2]; parent compound of the prodrugs) [nM] | IC50 [1, 3] [nM] | IC50 [2, 3] [nM]
1 | CCc1ccc([C@@H]2O[C@H](CO)[C@@H](O)[C@H](O)[C@H]2O)cc1Cc1ccc2c(c1)OCCO2 [(2S,3R,4R,5S,6R)-2-[3-(2,3-Dihydro-benzo[1,4]dioxin-6-ylmethyl)-4-ethyl-phenyl]-6-hydroxymethyl-tetrahydro-pyran-3,4,5-triol] | 22 | – | – | –
2 | OC[C@H]1O[C@@H](c2ccc(C3CC3)c(Cc3ccc4c(c3)OCCO4)c2)[C@H](O)[C@@H](O)[C@@H]1O [(2S,3R,4R,5S,6R)-2-[4-Cyclopropyl-3-(2,3-dihydro-benzo[1,4]dioxin-6-ylmethyl)-phenyl]-6-hydroxymethyl-tetrahydro-pyran-3,4,5-triol] | 9 | 2.2 | – | –
3 | CCc1ccc([C@@H]2O[C@H](COC(=O)[C@H](N)C(C)C)[C@@H](O)[C@H](O)[C@H]2O)cc1Cc1ccc2c(c1)OCCO2 [Example 1, (R)-2-Amino-3-methyl-butyric acid (2R,3S,4R,5R,6S)-6-[3-(2,3-dihydro-benzo[1,4]dioxin-6-ylmethyl)-4-ethyl-phenyl]-3,4,5-trihydroxy-tetrahydro-pyran-2-ylmethyl ester] | – | – | 409 | 22.5
4 | COC(=O)OC[C@H]1O[C@@H](c2ccc(C3CC3)c(Cc3ccc4c(c3)OCCO4)c2)[C@H](O)[C@@H](O)[C@@H]1O [Example 2, carbonic acid (2R,3S,4R,5R,6S)-6-[4-cyclopropyl-3-(2,3-dihydro-benzo[1,4]dioxin-6-ylmethyl)-phenyl]-3,4,5-trihydroxy-tetrahydro-pyran-2-ylmethyl ester methyl ester] | – | – | 35 | 17.5
5 | CCOP(=O)(OCC)OC[C@H]1O[C@@H](c2ccc(CC)c(Cc3ccc4c(c3)OCCO4)c2)[C@H](O)[C@@H](O)[C@@H]1O [Example 3, phosphoric acid (2R,3S,4R,5R,6S)-6-[3-(2,3-dihydro-benzo[1,4]dioxin-6-ylmethyl)-4-ethyl-phenyl]-3,4,5-trihydroxy-tetrahydro-pyran-2-ylmethyl ester diethyl ester] | – | – | 814 | > 1000
6 | CCOP(=O)(OCC)OC[C@H]1O[C@@H](c2ccc(C3CC3)c(Cc3ccc4c(c3)OCCO4)c2)[C@H](O)[C@@H](O)[C@@H]1O [Example 3a, Phosphoric acid (2R,3S,4R,5R,6S)-6-[4-cyclopropyl-3-(2,3-dihydro-benzo[1,4]dioxin-6-ylmethyl)-phenyl]-3,4,5-trihydroxy-tetrahydro-pyran-2-yl methyl ester diethyl ester] | – | – | 5650 | > 1000

The remaining lines, values ahead:

Row | IC50 [1] [nM] | IC50 ([2]; parent compound of the prodrugs) [nM] | IC50 [1, 3] [nM] | IC50 [2, 3] [nM] | SMILES
7 | – | – | 308 | 97 | CCOC(=O)OC[C@H]1O[C@@H](c2ccc(C3CC3)c(Cc3ccc4c(c3)OCCO4)c2)[C@H](O)[C@@H](O)[C@@H]1O [Example 2a, Carbonic acid (2R,3S,4R,5R,6S)-6-[4-cyclopropyl-3-(2,3-dihydro-benzo[1,4]dioxin-6-ylmethyl)-phenyl]-3,4,5-trihydroxy-tetrahydro-pyran-2-ylmethyl ester ethyl ester]
8 | – | – | 338 | 186 | CC(C)COC(=O)OC[C@H]1O[C@@H](c2ccc(C3CC3)c(Cc3ccc4c(c3)OCCO4)c2)[C@H](O)[C@@H](O)[C@@H]1O [Example 2b, Carbonic acid (2R,3S,4R,5R,6S)-6-[4-cyclopropyl-3-(2,3-dihydro-benzo[1,4]dioxin-6-ylmethyl)-phenyl]-3,4,5-trihydroxy-tetrahydro-pyran-2-ylmethyl ester isobutyl ester]
9 | – | – | 197 | 27 | CCOC(=O)OC[C@H]1O[C@@H](c2ccc(CC)c(Cc3ccc4c(c3)OCCO4)c2)[C@H](O)[C@@H](O)[C@@H]1O [Example 2c, Carbonic acid (2R,3S,4R,5R,6S)-6-[3-(2,3-dihydro-benzo[1,4]dioxin-6-ylmethyl)-4-ethyl-phenyl]-3,4,5-trihydroxy-tetrahydro-pyran-2-ylmethyl ester ethyl ester]
10 | – | – | 3440 | 143 | CCc1ccc([C@@H]2O[C@H](COC(=O)OCC3CC4CCC3C4)[C@@H](O)[C@H](O)[C@H]2O)cc1Cc1ccc2c(c1)OCCO2 (stereo partly drawn) [Example 2f, Carbonic acid bicyclo[2.2.1]hept-2-ylmethyl ester (2R,3S,4R,5R,6S)-6-[3-(2,3-dihydro-benzo[1,4]dioxin-6-ylmethyl)-4-ethyl-phenyl]-3,4,5-trihydroxy-tetrahydro-pyran-2-ylmethyl ester]
11 | – | – | 1000 | 567 | CCc1ccc([C@@H]2O[C@H](COC(=O)O[C@@H](C)c3ccccc3)[C@@H](O)[C@H](O)[C@H]2O)cc1Cc1ccc2c(c1)OCCO2 [Example 2g, Carbonic acid (2R,3S,4R,5R,6S)-6-[3-(2,3-dihydro-benzo[1,4]dioxin-6-ylmethyl)-4-ethyl-phenyl]-3,4,5-trihydroxy-tetrahydro-pyran-2-ylmethyl ester (S)-1-phenyl-ethyl ester]
